Two molecules from ChEMBL document CHEMBL3421609, “Sandensone A, a novel sesquiterpenoid from the Formosan soft coral Sinularia sandensis” (2015) can be followed below.

Experiment [1] has as its system A549. Briefly: Cytotoxicity against human A549 cells by MTT assay. It counts as functional. The note with it: read-out: ED50 (the source's name).
For experiment [2], the system named is HT-29. The experiment is described as follows: Cytotoxicity against human HT-29 cells by MTT assay. It counts as functional. The note with it: read-out: ED50 (the source's name).
In experiment [3] the test system is P388. Briefly: Cytotoxicity against mouse P388 cells by MTT assay. The conditions noted are these: read-out: ED50 (the source's name). Type of experiment: functional.
The subject of experiment [4] is Human betaherpesvirus 5. The experiment is described as follows: Antiviral activity against human cytomegalovirus infected in HEL cells assessed as reduction in virus replication. It counts as functional. The note with it: Human betaherpesvirus 5, HEL; read-out: ED50 (the source's name).
In experiment [5] the test system is Human betaherpesvirus 5. The experiment is described as follows: Antiviral activity against human cytomegalovirus infected in HEL cells assessed as reduction in virus replication at 1 ug/ml. It counts as functional, organism-based.

The source made the active and inactive calls. No cut-off for these calls is given here.

As to `CO[C@H](C(=O)[C@@H](O)[C@@H](C)O)[C@@H]1Cc2cc3cc(O[C@H]4C[C@@H](O[C@@H]5C[C@@H](O)[C@H](O)[C@@H](C)O5)[C@H](O)[C@@H](C)O4)c(C)c(O)c3c(O)c2C(=O)[C@H]1O[C@H]1C[C@@H](O[C@@H]2C[C@@H](O)[C@@H](O[C@@H]3C[C@](C)(O)[C@H](O)[C@@H](C)O3)[C@@H](C)O2)[C@H](O)[C@@H](C)O1` [PLICAMYCIN], the EC50 in experiment [1] is 60 nM; in experiment [2] it was 70 nM; in experiment [3], 50 nM.

`C=C/C(C)=C/C/C=C(\C)[C@H]1C(=O)C=C(C)[C@@H]1O`: the EC50 in experiment [1] is above 50000 nM; in experiment [4], above 50 µg/mL; in experiment [2] it was 38000 nM; in experiment [3] it was 22000 nM. Besides, the outcome in experiment [5] was inactive.
